Assay results as given in ChEMBL document CHEMBL2396614, “Affinity-based screening of MDM2/MDMX-p53 interaction inhibitors by chemical array: identification of novel peptidic inhibitors” (Bioorg Med Chem Lett, 2013).
Residues, ends and D or L forms follow the SMILES beside them. *: point of attachment. Mts = Cc1cc(C)c(S(=O)(=O)*)c(C)c1; Npys = O=[N+]([O-])c1cccnc1S*; X1 = COc1ccc(COC(=O)*)cc1; Boc = CC(C)(C)OC(=O)*; OBn = c1ccc(CO*)cc1; X2 = C1CCCC(O*)CC1; NHNH2 = NN*

Tests used:
[1] = molecular target: E3 ubiquitin-protein ligase Mdm2 (Homo sapiens, UniProt Q00987); experiment: Inhibition of MDM2 (unknown origin) binding to FAM-LTFEHYWAQLTS-NH2 after 30 mins by fluorescence polarization assay
Protein Mdm4 = molecular target: T1, Protein Mdm4 (Homo sapiens, UniProt O15151); experiment: Inhibition of MDMX (unknown origin) binding to FAM-LTFEHYWAQLTS-NH2 after 30 mins by fluorescence polarization assay
T1 sequence (O15151 whole entry): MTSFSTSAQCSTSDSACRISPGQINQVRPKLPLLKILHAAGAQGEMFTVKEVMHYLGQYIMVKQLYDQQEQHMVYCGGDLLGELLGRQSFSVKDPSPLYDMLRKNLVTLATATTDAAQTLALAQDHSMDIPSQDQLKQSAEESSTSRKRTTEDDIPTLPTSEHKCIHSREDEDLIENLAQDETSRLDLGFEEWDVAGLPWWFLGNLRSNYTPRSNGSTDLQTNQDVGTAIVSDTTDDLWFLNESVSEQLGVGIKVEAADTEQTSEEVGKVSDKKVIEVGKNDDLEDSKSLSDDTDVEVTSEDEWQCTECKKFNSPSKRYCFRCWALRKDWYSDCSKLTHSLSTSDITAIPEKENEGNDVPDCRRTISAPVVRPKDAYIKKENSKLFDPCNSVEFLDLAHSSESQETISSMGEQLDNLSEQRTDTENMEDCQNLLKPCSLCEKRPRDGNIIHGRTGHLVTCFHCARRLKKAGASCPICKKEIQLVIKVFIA

[2] = Solubility of the compound in DMEM medium at > 30 uM; type: physicochemical
A549 = experiment: Growth inhibition of human A549 cells after 72 hrs by MTS assay; type: functional, cell-based; conditions: A549, 72 h

Sequence of E3 ubiquitin-protein ligase Mdm2 (Q00987 whole entry): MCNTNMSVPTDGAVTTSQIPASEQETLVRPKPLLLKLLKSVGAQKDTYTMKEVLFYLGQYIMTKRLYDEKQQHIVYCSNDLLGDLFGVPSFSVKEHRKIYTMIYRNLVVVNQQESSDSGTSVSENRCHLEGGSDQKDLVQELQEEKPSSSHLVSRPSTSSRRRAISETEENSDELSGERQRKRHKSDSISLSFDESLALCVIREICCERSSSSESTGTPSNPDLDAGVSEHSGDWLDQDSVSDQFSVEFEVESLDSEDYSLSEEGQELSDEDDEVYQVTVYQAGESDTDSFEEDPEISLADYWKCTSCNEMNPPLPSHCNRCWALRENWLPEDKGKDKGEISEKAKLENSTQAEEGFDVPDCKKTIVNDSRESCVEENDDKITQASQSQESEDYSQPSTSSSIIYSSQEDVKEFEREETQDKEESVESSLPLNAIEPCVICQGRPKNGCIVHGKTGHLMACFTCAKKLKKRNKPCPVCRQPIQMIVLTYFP

## COc1ccc(COC(=O)N[C@H](C(=O)N[C@@H](CCC(C)=O)C(=O)N[C@@H](Cc2cn(S(=O)(=O)c3c(C)cc(C)cc3C)c3ccccc23)C(=O)N[C@@H](CC(C)C)C(=O)NN)C(C)C)cc1
[1]
  IC50: 8.51 µM
Protein Mdm4
  IC50: 32.4 µM
[2]
  solubility: Insoluble
A549
  EC50: > 30 µM

## CC[C@H](C)[C@H](NC(=O)[C@H](Cc1ccccc1)NC(=O)[C@H](CSSc1ncccc1[N+](=O)[O-])NC(=O)OC(C)(C)C)C(=O)N[C@@H](CCCNC(=N)NS(=O)(=O)c1c(C)cc(C)cc1C)C(=O)OC (Boc-C(Npys)FIR(Mts)-OMe)
[1]
  IC50: 22.2 µM
Protein Mdm4
  IC50: 42.1 µM
A549
  EC50: 13.7 µM

## COc1ccc(COC(=O)N[C@@H](C)C(=O)N[C@@H](CCC(=O)OCc2ccccc2)C(=O)N[C@@H](CC(C)C)C(=O)N[C@H](C(=O)N[C@@H](CC(=O)OC2CCCCCC2)C(=O)N[C@@H](C)C(=O)NN)C(C)C)cc1 (X1-AE(OBn)LVD(X2)A-NHNH2)
[1]
  IC50: 21.3 µM
Protein Mdm4
  IC50: 52.5 µM
[2]
  solubility: Insoluble
A549
  EC50: > 30 µM
